Source: US9242958B2, “Substituted pyridazine carboxamide compounds as kinase inhibitor compounds” (Xcovery Holding Company LLC, priority 2010, dated 2016)
Marks after values point to notes of the source that are not given here. Blank lines part the entries; values can stand above or below the compound they belong to.

Tests used:
c-Met = biological target: T1, c-Met (Homo sapiens, UniProt P08581); assay: Kinase binding assay (Met biochemical assay, affinity beads/qPCR)
T1 construct: T7 phage fusion (kinase-tagged T7 phage), or alternatively a DNA tag for qPCR; made in house; host or cells: E. coli BL21-derived host (T7 phage display) or HEK-293 cells
Experimental: (§1) Met, ALK Biochemical Assays
(§2) Kinase Assays. […] 23, p. […] 26, p.
(§3) For most assays, kinase-tagged T7 phage strains were grown in parallel in 24-well blocks in an E. coli host derived from the BL21 strain. E. coli were grown to log-phase and infected with T7 phage from a frozen stock (multiplicity of infection ˜0.1) and incubated with shaking at 32° C. until lysis (˜90 minutes). The lysates were centrifuged (6,000×g) and filtered ([…]) to remove cell debris. The remaining kinases were produced in HEK-293 cells and subsequently tagged with DNA for qPCR detection. […] The liganded beads were blocked with excess biotin and washed with blocking buffer (SeaBlock (Pierce), 1% BSA, 0.05% Tween 20, 1 mM DTT) to remove unbound ligand and to reduce non-specific phage binding. […] Test compounds were prepared as 40× stocks in 100% DMSO and directly diluted into the assay. All reactions were performed in polypropylene 384-well plates in a final volume of 0.04 ml. […] The kinase concentration in the eluates was measured by qPCR.

ALK = biological target: T2, ALK (Homo sapiens, UniProt Q9UM73); assay: Kinase binding assay (ALK biochemical assay, affinity beads/qPCR)
T2 construct: T7 phage fusion (kinase-tagged T7 phage), or alternatively a DNA tag for qPCR; made in house; host or cells: E. coli BL21-derived host (T7 phage display) or HEK-293 cells
Experimental: as §1, §2, §3

U-87 MG xenograft tumor = assay: In vivo anti-tumor efficacy against U-87MG tumor xenograft model; parameters: species or system Balb/c nude mice
Experimental: In Vivo Anti-Tumor Efficacy of Compound 1 of EXAMPLE 1 Against U-87MG Tumor Xenograft Model
Balb/c nude mice (6 weeks old, male) were purchased from Shanghai Slac Laboratory Animal Co. Ltd (Shanghai, China). All mice were maintained in a pathogen-free facility for ˜2 weeks before implantation. They were housed in plastic cages (4˜6 mice/cage) containing corn cob and maintained in a pathogen-free facility (20˜25° C., 30˜70% humidity) with a 12-h light:dark cycle.
U-87 MG xenograft model was established by implanting athymic Balb/c nude mice s.c in the right flank with U-87 MG cells, 3.6×10^6/mouse (120 ul). Tumors were allowed to reach 120˜380 mm^3 in size.
Tumor volumes were measured twice a week with caliper. Tumor volumes were calculated by the formula <Tumor volume=length×width^2/2>.
Percentage of tumor growth inhibition (GI) after initiation of treatment was calculated by the formula: GI=100×{1−[(tumor volumefinal−tumor volumeinitial for the compound-treated group)/(tumor volumefinal−tumor volumeinitial for the vehicle-treated group)]} Relative tumor volume is defined as the ratio of the volume at a given time and the volume at the start of treatment. The relative tumor volume (RTV) was calculated by the formula: RTV=100×TVT/TV0

[1] = 25 mg/kg ig BID, d28 post implantation
[2] = 25 mg/kg ig BID, d31 post implantation
[3] = 50 mg/kg ig BID, d28 post implantation
[4] = 50 mg/kg ig BID, d31 post implantation

T1 sequence (P08581 25-1390): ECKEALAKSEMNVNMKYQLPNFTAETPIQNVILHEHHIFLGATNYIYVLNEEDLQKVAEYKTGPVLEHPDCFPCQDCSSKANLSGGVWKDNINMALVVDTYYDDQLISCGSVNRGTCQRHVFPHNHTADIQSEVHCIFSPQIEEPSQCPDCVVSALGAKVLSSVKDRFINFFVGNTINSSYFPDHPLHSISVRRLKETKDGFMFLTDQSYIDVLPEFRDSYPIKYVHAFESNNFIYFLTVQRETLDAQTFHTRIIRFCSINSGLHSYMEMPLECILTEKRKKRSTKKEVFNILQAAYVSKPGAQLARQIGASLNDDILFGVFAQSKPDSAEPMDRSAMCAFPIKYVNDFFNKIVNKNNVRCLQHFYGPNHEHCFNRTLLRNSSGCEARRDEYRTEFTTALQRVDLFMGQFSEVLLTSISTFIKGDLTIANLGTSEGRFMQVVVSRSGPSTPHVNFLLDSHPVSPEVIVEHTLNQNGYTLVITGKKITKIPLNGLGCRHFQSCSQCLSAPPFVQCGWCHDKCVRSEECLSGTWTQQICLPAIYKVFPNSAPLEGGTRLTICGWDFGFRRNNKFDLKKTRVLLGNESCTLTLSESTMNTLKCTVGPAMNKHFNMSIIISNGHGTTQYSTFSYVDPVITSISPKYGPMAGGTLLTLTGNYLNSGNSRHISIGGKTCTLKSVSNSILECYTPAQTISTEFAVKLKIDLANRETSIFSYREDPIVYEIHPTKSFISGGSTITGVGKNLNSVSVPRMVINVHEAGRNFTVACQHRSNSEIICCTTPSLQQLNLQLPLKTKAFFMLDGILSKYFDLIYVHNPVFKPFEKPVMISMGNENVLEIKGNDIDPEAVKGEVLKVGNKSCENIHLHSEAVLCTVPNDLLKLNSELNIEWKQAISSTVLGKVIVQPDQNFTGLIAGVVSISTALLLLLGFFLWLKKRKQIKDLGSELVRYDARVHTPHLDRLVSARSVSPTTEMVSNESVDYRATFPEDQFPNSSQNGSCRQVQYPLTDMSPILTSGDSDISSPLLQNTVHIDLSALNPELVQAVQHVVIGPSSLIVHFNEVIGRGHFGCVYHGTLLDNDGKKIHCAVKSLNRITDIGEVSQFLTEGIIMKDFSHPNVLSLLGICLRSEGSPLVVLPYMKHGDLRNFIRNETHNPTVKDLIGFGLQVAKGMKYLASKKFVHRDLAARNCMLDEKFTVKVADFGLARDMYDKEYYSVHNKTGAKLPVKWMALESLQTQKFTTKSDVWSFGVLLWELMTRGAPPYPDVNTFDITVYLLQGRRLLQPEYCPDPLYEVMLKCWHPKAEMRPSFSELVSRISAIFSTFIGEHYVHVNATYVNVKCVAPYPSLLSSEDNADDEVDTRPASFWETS
T2 sequence (Q9UM73 19-1620): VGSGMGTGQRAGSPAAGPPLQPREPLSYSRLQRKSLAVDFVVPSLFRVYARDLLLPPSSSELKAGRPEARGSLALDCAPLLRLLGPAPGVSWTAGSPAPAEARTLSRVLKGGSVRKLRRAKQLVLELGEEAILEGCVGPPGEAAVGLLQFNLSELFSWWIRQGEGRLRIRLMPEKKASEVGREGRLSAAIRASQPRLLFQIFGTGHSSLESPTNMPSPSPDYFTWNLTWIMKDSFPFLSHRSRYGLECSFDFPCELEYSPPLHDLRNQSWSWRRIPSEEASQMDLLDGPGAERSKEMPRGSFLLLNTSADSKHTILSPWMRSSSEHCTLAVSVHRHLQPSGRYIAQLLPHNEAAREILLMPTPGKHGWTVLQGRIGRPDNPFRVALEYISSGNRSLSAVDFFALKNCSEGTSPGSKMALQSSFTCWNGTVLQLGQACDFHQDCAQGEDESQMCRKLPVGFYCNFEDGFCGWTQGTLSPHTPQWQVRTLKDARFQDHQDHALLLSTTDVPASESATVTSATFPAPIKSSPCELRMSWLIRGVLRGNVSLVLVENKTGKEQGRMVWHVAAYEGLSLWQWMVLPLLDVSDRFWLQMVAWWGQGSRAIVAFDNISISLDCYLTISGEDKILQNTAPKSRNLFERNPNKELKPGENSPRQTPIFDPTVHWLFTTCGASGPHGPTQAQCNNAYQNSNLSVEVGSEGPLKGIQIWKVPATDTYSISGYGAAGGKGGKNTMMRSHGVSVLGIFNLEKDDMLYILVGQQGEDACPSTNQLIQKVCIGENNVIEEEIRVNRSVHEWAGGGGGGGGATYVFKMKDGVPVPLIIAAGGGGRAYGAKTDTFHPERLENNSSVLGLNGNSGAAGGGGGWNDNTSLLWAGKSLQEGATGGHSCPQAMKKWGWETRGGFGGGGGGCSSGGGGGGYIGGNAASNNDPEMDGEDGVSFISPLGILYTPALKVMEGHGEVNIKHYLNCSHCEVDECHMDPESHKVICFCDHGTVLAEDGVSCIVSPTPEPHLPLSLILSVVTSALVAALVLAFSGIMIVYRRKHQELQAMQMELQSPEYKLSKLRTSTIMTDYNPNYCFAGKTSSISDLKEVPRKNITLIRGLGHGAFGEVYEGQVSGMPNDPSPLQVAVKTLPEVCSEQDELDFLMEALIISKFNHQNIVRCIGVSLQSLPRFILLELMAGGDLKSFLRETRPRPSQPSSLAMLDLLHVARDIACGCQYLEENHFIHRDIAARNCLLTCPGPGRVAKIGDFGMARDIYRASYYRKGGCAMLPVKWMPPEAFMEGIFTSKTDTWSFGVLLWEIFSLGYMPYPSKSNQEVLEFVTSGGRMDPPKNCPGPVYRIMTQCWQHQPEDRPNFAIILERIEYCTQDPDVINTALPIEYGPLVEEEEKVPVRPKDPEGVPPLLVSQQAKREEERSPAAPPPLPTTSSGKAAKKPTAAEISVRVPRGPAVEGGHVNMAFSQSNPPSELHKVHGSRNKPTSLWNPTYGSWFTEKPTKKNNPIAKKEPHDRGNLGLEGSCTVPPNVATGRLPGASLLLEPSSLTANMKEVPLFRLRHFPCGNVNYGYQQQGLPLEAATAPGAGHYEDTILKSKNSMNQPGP

SMILES: C[C@@H](Oc1cc(C(=O)Nc2ccc(=O)n(C)c2)nnc1N)c1c(Cl)ccc(F)c1Cl [Example 1, {5-[(1R)-1-(2,6-dichloro-3-fluorophenyl)ethoxy]-6-aminopyridazin-3-yl}-N-(1-methyl-6-oxo-1,6-dihydro-pyridin-3-yl)carboxamide]
IC50 (c-Met): < 5 nM
IC50 (ALK): > 10 nM
tumor volume (mean ± S.E) (U-87 MG xenograft tumor; 25 mg/kg ig BID, d24 post implantation (start of treatment)): 230.4 ± 23.0 mm^3
tumor growth inhibition GI (U-87 MG xenograft tumor; [1]): 62.14%
tumor volume (mean ± S.E) (U-87 MG xenograft tumor; [1]): 365.7 ± 29.3** mm^3
tumor growth inhibition GI (U-87 MG xenograft tumor; [2]): 77.04%
tumor volume (mean ± S.E) (U-87 MG xenograft tumor; [2]): 453.7 ± 19.7** mm^3
tumor volume (mean ± S.E) (U-87 MG xenograft tumor; 25 mg/kg ig BID, d35 post implantation): 627.7 ± 33.9** mm^3
tumor growth inhibition GI (U-87 MG xenograft tumor; 25 mg/kg ig BID, d35 post implantation (after 11 days of treatment)): 65.95%
tumor volume (mean ± S.E) (U-87 MG xenograft tumor; 50 mg/kg ig BID, d24 post implantation (start of treatment)): 230.2 ± 24.5 mm^3
tumor growth inhibition GI (U-87 MG xenograft tumor; [3]): 78.82%
tumor volume (mean ± S.E) (U-87 MG xenograft tumor; [3]): 305.9 ± 22.0** mm^3
tumor growth inhibition GI (U-87 MG xenograft tumor; [4]): 85.52%
tumor volume (mean ± S.E) (U-87 MG xenograft tumor; [4]): 337.4 ± 27.8** mm^3
tumor volume (mean ± S.E) (U-87 MG xenograft tumor; 50 mg/kg ig BID, d35 post implantation): 371.5 ± 34.4** mm^3
tumor growth inhibition GI (U-87 MG xenograft tumor; 50 mg/kg ig BID, d35 post implantation (after 11 days of treatment)): 88.71%

IC50 (c-Met): < 5 nM
IC50 (ALK): > 10 nM
SMILES: CCn1cc(NC(=O)c2cc(OC(C)c3c(Cl)ccc(F)c3Cl)c(N)nn2)ccc1=O (racemic) [Example 7, {6-amino-5-[(2,6-dichloro-3-fluorophenyl)ethoxy]pyridazin-3-yl}-N-(1-ethyl-6-oxo-1,6-dihydro-pyridin-3-yl)carboxamide]

IC50 (c-Met): < 5 nM
IC50 (ALK): > 10 nM
SMILES: CC(Oc1cc(C(=O)Nc2ccc(=O)[nH]c2)nnc1N)c1c(Cl)ccc(F)c1Cl (racemic) [Example 5, {6-amino-5-[(2,6-dichloro-3-fluorophenyl)ethoxy]pyridazin-3-yl}-N-(6-oxo-1,6-dihydro-pyridin-3-yl)carboxamide]

IC50 (c-Met): > 100 nM
IC50 (ALK): > 100 nM
SMILES: CC(Oc1cc(C(=O)NC2CCC(=O)N(C)C2)nnc1N)c1c(Cl)ccc(F)c1Cl (centres unmarked) [Example 4]

IC50 (c-Met): < 5 nM
IC50 (ALK): < 5 nM
SMILES: C[C@@H](Oc1cc(C(=O)Nc2ccc(C(=O)N3CCN(C)CC3)cc2)nnc1N)c1c(Cl)ccc(F)c1Cl [reference compound]

IC50 (c-Met): < 5 nM
IC50 (ALK): > 10 nM
SMILES: COCCn1cc(NC(=O)c2cc(OC(C)c3c(Cl)ccc(F)c3Cl)c(N)nn2)ccc1=O (racemic) [Example 6, {6-amino-5-[(2,6-dichloro-3-fluorophenyl)ethoxy]pyridazin-3-yl}-N-[1-(2-methoxyethyl)-6-oxo-1,6-dihydro-pyridin-3-yl]carboxamide]
